Holding throughout (type): cell-based
The target of assay [1] is T1, ERα (Homo sapiens, UniProt P03372).
T1 sequence (P03372 1-595): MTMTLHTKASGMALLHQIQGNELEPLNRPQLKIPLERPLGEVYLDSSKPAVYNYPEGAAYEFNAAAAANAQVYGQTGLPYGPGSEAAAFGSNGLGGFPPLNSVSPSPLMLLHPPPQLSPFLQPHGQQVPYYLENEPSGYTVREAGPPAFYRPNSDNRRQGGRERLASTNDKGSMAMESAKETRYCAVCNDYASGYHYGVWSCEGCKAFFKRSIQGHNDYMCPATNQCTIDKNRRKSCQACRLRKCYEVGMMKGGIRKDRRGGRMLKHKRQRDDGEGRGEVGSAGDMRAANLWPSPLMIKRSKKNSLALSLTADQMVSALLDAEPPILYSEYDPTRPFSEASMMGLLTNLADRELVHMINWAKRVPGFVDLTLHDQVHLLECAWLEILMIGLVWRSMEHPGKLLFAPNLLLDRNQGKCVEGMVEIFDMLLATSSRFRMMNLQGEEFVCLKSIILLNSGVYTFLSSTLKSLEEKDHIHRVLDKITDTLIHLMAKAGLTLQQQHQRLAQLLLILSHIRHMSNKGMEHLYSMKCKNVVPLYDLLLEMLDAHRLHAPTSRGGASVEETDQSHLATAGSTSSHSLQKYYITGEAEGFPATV
Description: ERE luciferase reporter gene assay in T47D-KBluc cells (target engagement). Also noted: T47D human breast cancer cells stably transfected with estrogen responsive element/promoter/luciferase reporter gene; host or cells: T47D-KBluc cells. The following applies: 10% FBS, 24 hours. The gist of the method: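 PROTACs were tested at 12 concentrations from 300 nM down to 2 pM in 3-fold steps for 24 h on T47D-KBluc cells with a stable ERE-driven luciferase. Medium was RPMI with 10% FBS, measured at 10 pM estrogen. IC50 came from luminescence after lysis, in duplicate.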
On the technique in general: In a reporter assay the amount or activity of a reporter protein is the signal.

Assay [2] addresses T1, ERα. Description: Estrogen receptor-alpha (ERα) degradation assay in MCF-7 cells using western blot. The arrangement: assessed for their activity in degrading ERα in MCF-7 cells via western blot; endogenous in cells; host or cells: MCF7 cells. The following applies: ER-alpha degradation, MCF7 cells, 3 days of incubation. The protocol: Compounds prepared in this application were also analyzed for the degradation of ERα in MCF7 and T47D cells.
Estrogen Receptor-Alpha (ERα) Degradation Assay in MCF-7 Cells Using Western Blot Method for Table 4.
The exemplary novel ERα degraders were assessed for their activity in degrading ERα in MCF-7 cells via western blot. The assay was carried out in the presence of 10% fetal bovine serum (FBS) or high percentage of human or mouse serum.
MCF7 cells were grown in DMEM/F12 with 10% fetal bovine serum and seeded at 24,000 cells per well in 100 μl into 96-well clear tissue culture plates. The following day, the cells were treated with PROTACs in a […] concentration curve with 100 nM being the top concentration and serial dilutions to make the other concentrations (30 nM, 10 nM, 3 nM, 1 nM, and 0.3 nM). At all concentrations, 0.01% DMSO is the final concentration in the well. The following day, the plates are aspirated, washed with 50 μl of cold PBS. The cells are lysed with 50 μl/well 4° C. Cell Lysis Buffer (Catalog #9803; Cell Signaling Technology, Danvers, Mass.) (20 mM Tris-HCL (pH 7.5), 150 mM NaCl, 1 mM […], 1 mM EGTA, 1% Triton, 2.5 mM sodium pyrophosphate, 1 mM B-glycerophosphate, 1 mM sodium vanadate, 1 ug/ml leupeptin). Lysates were clarified at 16,000×g for 10 minutes, and 2 μg of protein was subjected to SDS-PAGE analysis and followed by immunoblotting according to standard protocols. The antibodies used were ERα (Cell Signaling Technologies Catalog #8644), and Tubulin (Sigma Catalog #T9026; St. Louis, Mo.). Detection reagents were Clarity Western ECL substrate (Bio-Rad Catalog #170-5060; Hercules, Calif.).
Alternatively, MCF7 cells were grown in DMEM/F12 with 10% fetal bovine serum and seeded at 24,000 cells per well in 500 μl in 24-well clear tissue culture plates. The following day, the cells were treated with PROTACs in a 5-point concentration curve (100 nM, 33 nM, 11 nM, 3.7 nM, and 1.2 nM) in the presence of 0.01% DMSO. After 72 hours, the wells are aspirated and washed with 500 μl of PBS. The cells are lysed with 100 μl/well 4° C. Cell Lysis Buffer (Catalog #9803; Cell Signaling Technology, Danvers, M A) (20 mM Tris-HCL (pH 7.5), 150 mM NaCl, 1 mM Na2EDTA, 1 mM EGTA, 1% Triton, 2.5 mM sodium pyrophosphate, 1 mM B-glycerophosphate, 1 mM sodium vanadate, 1 ug/ml leupeptin). Lysates were clarified at 16,000×g for 10 minutes, and 2 μg of protein was subjected to SDS-PAGE analysis and followed by immunoblotting according to standard protocols. The antibodies used were ER(X (Cell Signaling Technologies Catalog #8644), and Tubulin (Sigma Catalog #T9026; St. Louis, Mo.). Detection reagents were Clarity Western ECL substrate (Bio-Rad Catalog #170-5060; Hercules, Calif.).

Assay [3] concerns the target T1, ERα. Kind of assay: Estrogen receptor-alpha (ERα) degradation assay in MCF7 cells using In-Cell Western assay. The arrangement: assessed for their activity in degrading ERα in MCF-7 cells via western blot; endogenous in cells; host or cells: MCF7 cells. The following applies: ER-alpha degradation in MCF7 cells, 5 days of incubation. The method in brief: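 MCF7 cells treated 3 or 5 days at 37 °C with 11-point 3-fold dilutions from 1 μM final top. Fixed cells immunostained for ERα and tubulin, read by infrared imaging at 700/800 nm. ERα normalized to tubulin then to DMSO vehicle; DC50 and Dmax from 4-parameter curve fit.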

Where [4] appears, read: Table 2 VHL centric PROTACs, read-out: IC50.
Where [5] appears, read: Table 3 cereblon centric PROTACs, read-out: ER-α Luciferase IC50.

Like-named read-outs stand apart in the source and are kept apart here. Some results are limits rather than exact numbers.

For orientation: IC50 means the concentration at which inhibition is half-maximal. The DC50 is the concentration giving 50% degradation. Low values mean degradation at low concentration, high ones degradation only at high concentration. A word on the Dmax: it is the largest share of the target that was removed. Turning to `Cc1ncsc1-c1ccc(CNC(=O)[C@@H]2C[C@@H](O)CN2C(=O)C(c2cc(OCCN3CCN(CCOc4ccc(Oc5c(-c6ccc(Br)cc6)sc6cc(O)ccc56)cc4)CC3)no2)C(C)C)cc1` (stereo in doubt) [Compound 164, (2S,4R)-1-((S)-2-(3-(2-(4-(2-(4-((2-(4-bromophenyl)-6-hydroxybenzo[b]thiophen-3-yl)oxy)phenoxy)ethyl)piperazin-1-yl)ethoxy)isoxazol-5-yl)-3-methylbutanoyl)-4-hydroxy-N-(4-(4-methylthiazol-5-yl)benzyl)pyrrolidine-2-carboxamide], at ERα [1] (setting [4]), the IC50 came to 2.7 nM. Moreover, at ERα [2], the DC50 is 1 to 10 nM and the maximal degradation (Dmax) fell in the range of 50 to 75%.
The like results for `Cc1ncsc1-c1ccc([C@H](C)NC(=O)[C@@H]2C[C@@H](O)CN2C(=O)[C@@H](NC(=O)COCCOCCOCCOc2ccc(Oc3c(-c4ccc(F)cc4)sc4cc(O)ccc34)cc2)C(C)(C)C)cc1` [Compound 111, (2S,4R)-1-((S)-2-tert-butyl-14-(4-(2-(4-fluorophenyl)-6-hydroxybenzo[b]thiophen-3-yloxy)phenoxy)-4-oxo-6,9,12-trioxa-3-azatetradecane)-4-hydroxy-N—((S)-1-(4-(4-methylthiazol-5-yl)phenyl)ethyl)pyrrolidine-2-carboxamide] were, in that order, 0.6 nM, under 1 nM and over 75%.
The matching figures for `Cc1ncsc1-c1ccc(CNC(=O)[C@@H]2C[C@@H](O)CN2C(=O)[C@@H](NC(=O)COCCOC2CN(CCOc3ccc(Oc4c(-c5ccc(F)cc5)sc5cc(O)ccc45)cc3)C2)C(C)(C)C)cc1` [Compound 117, (2S,4R)-1-((S)-2-(2-(2-(1-(2-(4-(2-(4-fluorophenyl)-6-hydroxybenzo[b]thiophen-3-yloxy)phenoxy)ethyl)azetidin-3-yloxy)ethoxy)acetamido)-3,3-dimethylbutanoyl)-4-hydroxy-N-(4-(4-methylthiazol-5-yl)benzyl)pyrrolidine-2-carboxamide]: 3.3 nM, 1 to 10 nM and 50 to 75%.
The matching figures for `Cc1ncsc1-c1ccc(CNC(=O)[C@@H]2C[C@@H](O)CN2C(=O)[C@@H](NC(=O)COCCN2CCN(CCOc3ccc(Oc4c(-c5ccc(F)cc5)sc5cc(O)ccc45)cc3)CC2)C(C)(C)C)cc1` [Compound 118, (2S,4R)-1-((S)-2-(2-(2-(4-(2-(4-((2-(4-fluorophenyl)-6-hydroxybenzo[b]thiophen-3-yl)oxy)phenoxy)ethyl)piperazin-1-yl)ethoxy)acetamido)-3,3-dimethylbutanoyl)-4-hydroxy-N-(4-(4-methylthiazol-5-yl)benzyl)pyrrolidine-2-carboxamide]: 0.4 nM, under 1 nM and over 75%.
Turning to `Cc1ncsc1-c1ccc([C@H](C)NC(=O)[C@@H]2C[C@@H](O)CN2C(=O)[C@@H](NC(=O)COCCOCCOCCOc2ccc(Oc3c(-c4ccc(Cl)cc4)sc4cc(O)ccc34)cc2)C(C)(C)C)cc1` [Compound 119, (2S,4R)-1-((S)-2-tert-butyl-14-(4-(2-(4-chlorophenyl)-6-hydroxybenzo[b]thiophen-3-yloxy)phenoxy)-4-oxo-6,9,12-trioxa-3-azatetradecane)-4-hydroxy-N-((S)-1-(4-(4-methylthiazol-5-yl)phenyl)ethyl)pyrrolidine-2-carboxamide], the IC50 at ERα [1] (setting [4]) amounted to 1.1 nM. On ERα [2], this compound showed a DC50 of 1 to 10 nM and a Dmax of over 75%.
The like results for `Cc1ncsc1-c1ccc(CNC(=O)[C@@H]2C[C@@H](O)CN2C(=O)[C@@H](NC(=O)Cc2ccc(-c3ccn(CCOc4ccc(Oc5c(-c6ccc(F)cc6)sc6cc(O)ccc56)cc4)n3)cc2)C(C)(C)C)cc1` [Compound 121, (2S,4R)-1-[(2S)-2-[2-(4-[1-[2-(4-[[2-(4-fluorophenyl)-6-hydroxy-1-benzothiophen-3-yl]oxy]phenoxy)ethyl]-1H-pyrazol-3-yl]phenyl)acetamido]-3,3-dimethylbutanoyl]-4-hydroxy-N-[[4-(4-methyl-1,3-thiazol-5-yl)phenyl]methyl]pyrrolidine-2-carboxamide] were, in that order, 1 nM, 1 to 10 nM and over 75%.
The like results for `Cc1ncsc1-c1ccc([C@H](C)NC(=O)[C@@H]2C[C@@H](O)CN2C(=O)[C@@H](NC(=O)COCCOCCOCCOc2ccc(Oc3c(-c4ccc(Br)cc4)sc4cc(O)ccc34)cc2)C(C)(C)C)cc1` [Compound 126, (2S,4R)-1-((S)-14-(4-(2-(4-bromophenyl)-6-hydroxybenzo[b]thiophen-3-yloxy)phenoxy)-2-tert-butyl-4-oxo-6,9,12-trioxa-3-azatetradecane)-4-hydroxy-N-((S)-1-(4-(4-methylthiazol-5-yl)phenyl)ethyl)pyrrolidine-2-carboxamide] were, in that order, 0.2 nM, under 1 nM and over 75%.
On ERα [3], `O=C1CCC(N2Cc3cc(N4CCN(CC5CCN(c6ccc(Oc7c(-c8ccc(O)cc8)sc8cc(O)ccc78)cc6)CC5)CC4)ccc3C2=O)C(=O)N1` (stereo not drawn) [Compound 244, 3-[5-[4-[[1-[4-(6-hydroxy-2-(4-hydroxyphenyl)benzothiophen-3-yl]oxyphenyl]-4-piperidyl]methyl]piperazin-1-yl]-1-oxo-isoindolin-2-yl]piperidine-2,6-dione] yielded a half-maximal degradation concentration (DC50) of 1 to 10 nM and a Dmax of 50 to 75%. Moreover, on ERα [1] (setting [5]), the IC50 stood at 0.18 nM.
The matching figures for `O=C1CCC(N2C(=O)c3ccc(N4CCN(CC5CCN(c6ccc(Oc7c(-c8ccc(O)cc8)sc8cc(O)ccc78)cc6)CC5)CC4)cc3C2=O)C(=O)N1` (stereo not drawn) [Compound 245, 2-(2,6-dioxo-3-piperidyl)-5-[4-[[1-[4-[6-hydroxy-2-(4-hydroxyphenyl)benzothiophen-3-yl]oxyphenyl]-4-piperidyl]methyl]piperazin-1-yl]isoindoline-1,3-dione]: 10 to 100 nM, 50 to 75% and 0.53 nM.

These data come from patent US11384063B2, “Modulators of estrogen receptor proteolysis and associated methods of use” (Arvinas Operations, Inc., priority 2017, dated 2022).
